Test results: article PMC4167698, “Fatty Acid Esters of Phloridzin Induce Apoptosis of Human Liver Cancer Cells through Altered Gene Expression” (PLoS ONE, 2014)
Each block holds one compound with its values, some of them ahead of it.

Experiments:
HepG2 cells [1] = experiment: MTS cell proliferation assay, HepG2; assay type: cell-based, human; settings: for EC50: MTS
Experimental: (§1) Cell viability was determined by using the MTS assay. In brief, HepG2 cells (5×10^3 cells/100 µL/well), MDA-MB-231 (5×10^3 cells/100 µL/well), THP-1 (25×10^3/100 µL/well), normal human and rat hepatocytes (1×10^4 cells/100 µL/well) were plated in triplicate, in a 96 well sterile flat bottom tissue culture plates. […] Thereby, cells were exposed to various concentrations (0.1, 1, 10, 25, 50, 75, 100 µM) of each treatment. Controls consist of cells with media containing DMSO (<0.5%), test blank wells contained the test compound in media with no cells and blank wells contained media with no cells. After additional 3, 6, 12, 18 or 24 h, 20 µL of the MTS reagent in combination with the electron coupling agent, phenazine methosulfate were added to the wells and cells were incubated in a humidified incubator for 3 h. Absorbance at 490 nm (OD490) was measured by using a Flurostar Optima microplate reader (BMG Labtech, Cary, NC, USA) to obtain the number of viable cells relative to the control population. Percentage of viability of the test compound treated cells are expressed as percentage compared to control (<0.5% DMSO). […] The selective index (SI) of the fatty acid esters of phloridzin is defined as the ratio of cytotoxicity (EC50 values) on normal HP-F cells to solid cancer HepG2, MDA-MB-231 cells (SI = EC50 on HP-F cells/EC50 on solid cancer cells). Samples with SI values greater than three were considered to have high selectivity towards cancer cells.

MDA-MB-231 cells = experiment: MTS cell proliferation assay, MDA-MB-231; assay type: cell-based, human; settings: for EC50: MTS
Experimental: as §1

THP-1 cells = experiment: MTS cell proliferation assay, THP-1; assay type: cell-based, human; settings: for EC50: MTS
Experimental: as §1

[2] = tested on: normal human hepatocytes (HP-F); experiment: MTS cell viability assay, normal human hepatocytes; assay type: cell-based; settings: 24 h
Experimental: as §1

HepG2 cells [3] = experiment: Human cancer drug targets RT2 profiler PCR array; assay type: cell-based
Experimental: Total RNA extraction was performed using Arum Total RNA minikit (Bio-Rad, Hercules, CA, USA). RNA concentration and purity was determined by measuring the absorbance using a NanoDrop (NanoDrop Technologies, Wilmington, DE, USA). RNA integrity was assessed by formaldehyde agarose gel electrophoresis. RNA (400 ng) was used to synthesize cDNA using RT^2 First Strand kit (SABiosciences, Frederick, MD, USA). RT^2 RNA QC PCR arrays (SABiosciences, Frederick, MD, USA) was used to assess the quality of cDNA samples before characterization with the human cancer drug targets RT^2 profiler PCR array (SABiosciences, Frederick, MD, USA). Gene expression profiles of 84 genes were investigated using the human cancer drug targets RT^2 profiler PCR array (PAHS-507ZD) on a Bio-Rad CFX Connect (Bio-Rad, Hercules, CA, USA) using RT^2 real-time SYBR green PCR master mix (SABiosciences, Frederick, MD, USA). […] Reproducibility was maintained by using three biological replicates from three individual experiments.

[4] = 84-gene array, vs vehicle control

EC50 (HepG2 cells [1]; HepG2, 3 h): > 100 µM
EC50 (HepG2 cells [1]; HepG2, 6 h): > 100 µM
EC50 (HepG2 cells [1]; HepG2, 12 h): > 100 µM
EC50 (HepG2 cells [1]; HepG2, 18 h): > 100 µM
EC50 (HepG2 cells [1]; HepG2, 24 h): > 100 µM
EC50 (MDA-MB-231 cells; MDA-MB-231, 3 h): > 100 µM
EC50 (MDA-MB-231 cells; MDA-MB-231, 6 h): > 100 µM
EC50 (MDA-MB-231 cells; MDA-MB-231, 12 h): > 100 µM
EC50 (MDA-MB-231 cells; MDA-MB-231, 18 h): > 100 µM
EC50 (MDA-MB-231 cells; MDA-MB-231, 24 h): > 100 µM
EC50 (THP-1 cells; THP-1, 3 h): > 100 µM
EC50 (THP-1 cells; THP-1, 6 h): > 100 µM
EC50 (THP-1 cells; THP-1, 12 h): > 100 µM
EC50 (THP-1 cells; THP-1, 18 h): > 100 µM
EC50 (THP-1 cells; THP-1, 24 h): > 100 µM
Structure (SMILES): CC/C=C\C/C=C\C/C=C\C/C=C\C/C=C\C/C=C\CCC(=O)O [DHA, decosahexaenoic acid]
EC50 [2]: > 100 µM

EC50 (HepG2 cells [1]; HepG2, 3 h): 76.9 ± 5.8 µM
EC50 (HepG2 cells [1]; HepG2, 6 h): 64.4 ± 5.9 µM
EC50 (HepG2 cells [1]; HepG2, 12 h): 56.2 ± 4.9 µM
EC50 (HepG2 cells [1]; HepG2, 18 h): 54.2 ± 3.9 µM
EC50 (HepG2 cells [1]; HepG2, 24 h): 51.9 ± 3.8 µM
EC50 (MDA-MB-231 cells; MDA-MB-231, 3 h): 132 ± 9.9 µM
EC50 (MDA-MB-231 cells; MDA-MB-231, 6 h): 83.7 ± 7.5 µM
EC50 (MDA-MB-231 cells; MDA-MB-231, 12 h): 70.2 ± 6.1 µM
EC50 (MDA-MB-231 cells; MDA-MB-231, 18 h): 62.6 ± 5.1 µM
EC50 (MDA-MB-231 cells; MDA-MB-231, 24 h): 55.5 ± 4.5 µM
EC50 (THP-1 cells; THP-1, 3 h): 65.8 ± 5.2 µM
EC50 (THP-1 cells; THP-1, 6 h): 49.5 ± 3.8 µM
EC50 (THP-1 cells; THP-1, 12 h): 42.7 ± 3 µM
EC50 (THP-1 cells; THP-1, 18 h): 35.8 ± 2.8 µM
EC50 (THP-1 cells; THP-1, 24 h): 27.3 ± 1.2 µM
Structure (SMILES): CC/C=C\C/C=C\C/C=C\C/C=C\C/C=C\C/C=C\CCC(=O)OC[C@H]1O[C@@H](Oc2cc(O)cc(O)c2C(=O)CCc2ccc(O)cc2)[C@H](O)[C@@H](O)[C@@H]1O [Pz-DHA ester, DHA ester of Pz]
SI (selective index) (HepG2 cells [1]; EC50 of HP-F cells/EC50 on HepG2, 24 h): 11.2
SI (selective index) (MDA-MB-231 cells; EC50 of HP-F cells/EC50 on MDA-MB-231, 24 h): 10.5
SI (selective index) (THP-1 cells; EC50 of HP-F cells/EC50 on THP-1, 24 h): 21.3
EC50 [2]: > 100 µM
number of genes down-regulated (more than two-fold) (HepG2 cells [3]; [4]): 41 genes
number of genes unaffected (HepG2 cells [3]; [4]): 35 genes
number of genes up-regulated (more than two-fold) (HepG2 cells [3]; [4]): 8 genes
Fold change of gene expression relative to control: BCL2 (HepG2 cells [3]; Apoptosis gene, RT-PCR array): −2.8 fold
Fold change of gene expression relative to control: AKT1 (HepG2 cells [3]; RT-PCR array): −6.1 fold
Fold change of gene expression relative to control: AKT2 (HepG2 cells [3]; RT-PCR array): −2.8 fold
Fold change of gene expression relative to control: AURKB (HepG2 cells [3]; RT-PCR array): −2.0 fold
Fold change of gene expression relative to control: CDK2 (HepG2 cells [3]; RT-PCR array): −2.0 fold
Fold change of gene expression relative to control: CDK9 (HepG2 cells [3]; RT-PCR array): −2.1 fold
Fold change of gene expression relative to control: EGFR (HepG2 cells [3]; RT-PCR array): −8.9 fold
Fold change of gene expression relative to control: ERBB2 (HepG2 cells [3]; RT-PCR array): −5.7 fold
Fold change of gene expression relative to control: ERBB3 (HepG2 cells [3]; RT-PCR array): −6.1 fold
Fold change of gene expression relative to control: FLT1 (HepG2 cells [3]; RT-PCR array): 16.5 fold
Fold change of gene expression relative to control: GRB2 (HepG2 cells [3]; RT-PCR array): −8.6 fold
Fold change of gene expression relative to control: HDAC1 (HepG2 cells [3]; RT-PCR array): −2.6 fold
Fold change of gene expression relative to control: HDAC4 (HepG2 cells [3]; RT-PCR array): −4.1 fold
Fold change of gene expression relative to control: HDAC6 (HepG2 cells [3]; RT-PCR array): −5.4 fold
Fold change of gene expression relative to control: HDAC7 (HepG2 cells [3]; RT-PCR array): −6.0 fold
Fold change of gene expression relative to control: HDAC11 (HepG2 cells [3]; RT-PCR array): −20.1 fold
Fold change of gene expression relative to control: IGF1R (HepG2 cells [3]; RT-PCR array): −4.2 fold
Fold change of gene expression relative to control: IGF2 (HepG2 cells [3]; RT-PCR array): −2.3 fold
Fold change of gene expression relative to control: IRF5 (HepG2 cells [3]; RT-PCR array): −2.3 fold
Fold change of gene expression relative to control: KDR (HepG2 cells [3]; RT-PCR array): −2.8 fold
Fold change of gene expression relative to control: KRAS (HepG2 cells [3]; RT-PCR array): −4.0 fold
Fold change of gene expression relative to control: MDM4 (HepG2 cells [3]; RT-PCR array): −2.1 fold
Fold change of gene expression relative to control: NF−κB (HepG2 cells [3]; RT-PCR array): −4.3 fold
Fold change of gene expression relative to control: PARP1 (HepG2 cells [3]; RT-PCR array): −5.4 fold
Fold change of gene expression relative to control: PDGFRA (HepG2 cells [3]; RT-PCR array): −2.8 fold
Fold change of gene expression relative to control: PDGFRB (HepG2 cells [3]; RT-PCR array): −16.8 fold
Fold change of gene expression relative to control: PIK3C2A (HepG2 cells [3]; RT-PCR array): −2.2 fold
Fold change of gene expression relative to control: PLK1 (HepG2 cells [3]; RT-PCR array): −2.9 fold
Fold change of gene expression relative to control: PRKCA (HepG2 cells [3]; RT-PCR array): −8.1 fold
Fold change of gene expression relative to control: PRKCD (HepG2 cells [3]; RT-PCR array): −2.1 fold
Fold change of gene expression relative to control: PRKCE (HepG2 cells [3]; RT-PCR array): −5.6 fold
Fold change of gene expression relative to control: TERT (HepG2 cells [3]; RT-PCR array): −5.6 fold
Fold change of gene expression relative to control: TOP2A (HepG2 cells [3]; RT-PCR array): −2.7 fold
Fold change of gene expression relative to control: TOP2B (HepG2 cells [3]; RT-PCR array): −2.3 fold
Fold change of gene expression relative to control: TP53 (HepG2 cells [3]; RT-PCR array): −7.4 fold
Fold change of gene expression relative to control: mTOR (HepG2 cells [3]; RT-PCR array): −3.6 fold
Fold change of gene expression relative to control: FLT1 (HepG2 cells [3]; RT-PCR array, listed as Phloridzin-DHA): +16.5 fold

Structure (SMILES): CCCCCCCC/C=C\CCCCCCCC(=O)O [Oleic acid, oleic acid]
EC50 (HepG2 cells [1]; Homo sapiens, HepG2, 3 h): > 100 µM
EC50 (HepG2 cells [1]; Homo sapiens, HepG2, 6 h): > 100 µM
EC50 (HepG2 cells [1]; Homo sapiens, HepG2, 12 h): > 100 µM
EC50 (HepG2 cells [1]; Homo sapiens, HepG2, 18 h): > 100 µM
EC50 (HepG2 cells [1]; Homo sapiens, HepG2, 24 h): > 100 µM
EC50 (MDA-MB-231 cells; Homo sapiens, MDA-MB-231, 3 h): > 100 µM
EC50 (MDA-MB-231 cells; Homo sapiens, MDA-MB-231, 6 h): > 100 µM
EC50 (MDA-MB-231 cells; Homo sapiens, MDA-MB-231, 12 h): > 100 µM
EC50 (MDA-MB-231 cells; Homo sapiens, MDA-MB-231, 18 h): > 100 µM
EC50 (MDA-MB-231 cells; Homo sapiens, MDA-MB-231, 24 h): > 100 µM
EC50 (THP-1 cells; Homo sapiens, THP-1, 3 h): > 100 µM
EC50 (THP-1 cells; Homo sapiens, THP-1, 6 h): > 100 µM
EC50 (THP-1 cells; Homo sapiens, THP-1, 12 h): > 100 µM
EC50 (THP-1 cells; Homo sapiens, THP-1, 18 h): > 100 µM
EC50 (THP-1 cells; Homo sapiens, THP-1, 24 h): > 100 µM
EC50 ([2]; Hepatocyte): > 100 µM
